The source of these data is patent publication EP4501917A1, “3,4-DIHYDROQUINOXALINE-2-CARBOXIMIDE DERIVATIVE COMPOUND AND PHARMACEUTICAL COMPOSITION COMPRISING SAME FOR PREVENTING OR TREATING CANCER DISEASE” (Daegu-Gyeongbuk Medical Innovation Foundation, priority 2022, dated 2023).

One experiment has as its target T1, HDAC7 (Homo sapiens, UniProt Q8WUI4).
T1 construct: purchased BPS bioscience
T1 sequence (Q8WUI4 1-952): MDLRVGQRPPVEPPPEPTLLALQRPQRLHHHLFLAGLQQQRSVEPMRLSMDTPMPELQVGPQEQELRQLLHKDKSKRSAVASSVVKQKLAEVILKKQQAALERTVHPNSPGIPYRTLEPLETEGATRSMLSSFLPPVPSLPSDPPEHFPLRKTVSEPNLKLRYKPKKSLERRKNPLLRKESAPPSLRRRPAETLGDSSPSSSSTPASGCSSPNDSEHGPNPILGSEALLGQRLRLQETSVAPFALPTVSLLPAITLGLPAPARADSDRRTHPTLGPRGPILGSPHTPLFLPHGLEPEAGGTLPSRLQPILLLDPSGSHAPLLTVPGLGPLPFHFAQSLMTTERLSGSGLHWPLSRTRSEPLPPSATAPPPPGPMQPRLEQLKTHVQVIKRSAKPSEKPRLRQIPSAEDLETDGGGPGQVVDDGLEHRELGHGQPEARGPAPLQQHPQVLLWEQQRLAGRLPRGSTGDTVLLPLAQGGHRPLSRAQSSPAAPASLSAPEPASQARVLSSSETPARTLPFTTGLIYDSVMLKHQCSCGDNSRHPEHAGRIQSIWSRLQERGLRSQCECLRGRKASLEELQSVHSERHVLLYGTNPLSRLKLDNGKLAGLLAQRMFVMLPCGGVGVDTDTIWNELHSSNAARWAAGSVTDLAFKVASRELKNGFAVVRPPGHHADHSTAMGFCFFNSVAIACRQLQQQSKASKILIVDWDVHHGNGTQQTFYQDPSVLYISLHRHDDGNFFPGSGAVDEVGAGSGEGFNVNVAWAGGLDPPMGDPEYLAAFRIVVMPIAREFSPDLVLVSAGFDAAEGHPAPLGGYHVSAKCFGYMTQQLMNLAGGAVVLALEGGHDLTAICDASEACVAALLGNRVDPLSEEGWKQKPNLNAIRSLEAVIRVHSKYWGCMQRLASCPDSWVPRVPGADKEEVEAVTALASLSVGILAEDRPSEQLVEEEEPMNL
Description: Selective HDAC inhibition, HDAC Fluorogenic assay kit. The experiment is classed as biochemical. The settings on record: final concentration 10 µM; HDAC substrate 2A 200 µM; positive control (1% DMSO) set to 100; read-out: HDAC7 enzyme activity (%).

Another experiment concerns Huh-7 cell lines. Description: Liver cancer model, Huh-7 cell lines subcutaneously transplanted, tumor volume and weight. The experiment is classed as in vivo, nude mice. The settings on record: result in words. The procedure: In addition, a liver cancer model was established by subcutaneously transplanting Huh-7 cell lines into nude mice. After establishing the liver cancer model, the mice were divided into two groups (group 1: vehicle administration group, group 2: 50 mg/kg Example 27 compound administration group). The drug was administered once a day for 12 times. To evaluate therapeutic efficacy, tumor volume was measured before drug administration and on days 4, 7, 10, 13, and 15 after drug administration. Tumor volume (mm^3) was calculated as follows (tumor volume (mm^3) = (A X B^2)/2, where A = tumor long axis, B = tumor short axis). Body weight was measured before administration and on days 4, 7, 10, 13, and 15 after drug administration during the drug administration period. Tumor was excised on day 15 after drug treatment and body weight was measured.

Description for HDAC7: For analysis, HDAC substrate 3 was diluted in buffer to a concentration of 200 µM and used in HDAC 1, 2, 3, 6, and 10 assays, HDAC substrate 2A was diluted in buffer to a concentration of 200 µM and used in HDAC 4, 7, 9, and 11 assays, HDAC substrate 2A was diluted in buffer to a concentration of 20 µM and used in HDAC 8 assays. For the HDAC 11 assay, a dedicated buffer included in the kit was used separately, and the same buffer was used for the remaining assays. The compound of the Example was diluted to 1 mM (1% DMSO concentration) using DMSO to obtain a final concentration of 10 µM, and prepared by diluting 1/10 with assay buffer. In a 96-well black round-bottom plate, 5 µL of the diluted compound of the Example, 5 µL of the diluted HDAC substrate, 5 µL of BSA (1 mg/ml), 5 µL of the HDAC enzyme diluted to the appropriate concentration, and 30 µL of assay buffer were added, and the enzyme reaction was performed at 37°C for 30 minutes. […] Afterwards, 50 µL of 2X HDAC developer was added to each well. After reacting for 15 minutes at room temperature, the fluorescence values at excitation wavelengths of 350-380 nm and emission wavelengths of 440-460 nm were measured using a microplate reader (Synergy Neo).

Turning to `Cc1cc2nc(C(=O)NCCc3c[nH]c4ccc(O)cc34)c(=O)n(C[C@H](O)[C@H](O)[C@H](O)CO)c2cc1C` [Example 27, N-(2-(5-hydroxy-1H-indol-3-yl)ethyl)-6,7-dimethyl-3-oxo-4-((2S,3S,4R)-2,3,4,5-tetrahydroxypentyl)-3,4-dihydroquinoxaline-2-carboxamide], the remaining activity at 10 µM at HDAC7 worked out at 91.2%. Also, the tumor volume result in the experiment with Huh-7 cell lines (50 mg/kg once a day for 12 times, until day 15, **p<0.005 compared with vehicle, FIG. 7A) is reported as “tumor growth inhibitory effect”. For the same compound, in the experiment on Huh-7 cell lines (50 mg/kg, tumor removed on day 15, ***p<0.0005 compared with vehicle, FIGS. 7B and 7C), the tumor weight entry is “tumor weight of the vehicle group was significantly higher”.
